# Reference: patent US20180346505A1, “MONONUCLEOTIDES HAVING A BIOREVERSIBLE DISULFIDE GROUP” (priority 2014, published 2018)
# Tests used:
# GT1a (H77) HCV replicon = test: HCV replicon assay, wild type GT1a (H77), luciferase based, stable format; type: cell-based, hepatitis C virus; conditions: Hepatitis C virus, GT1A, Huh-7, 72 h, Huh-7 cells
# Method: (§1) The antiviral activity of the test compounds was assessed in the wild type GT1b (Con1), GT1a (H77), and GT1b/2a, GT1b/3a, GT1b/4a and GT1b/5a NS5B chimeric replicons, as well as the NS5B mutant replicons listed in Table 2a and 2b.
# (§2) All the replicon assays were luciferase based in Huh-7 cells, either in stable format (GT1b and GT1a) or by transient transfection by electroporation (chimeric and mutant replicons). For a standard HCV replicon assay, stable or transiently transfected Huh-7 cells were seeded in 96-well plates (5,000 cells/well), cultured in DMEM containing 10% FBS, and incubated at 37° C., 5% CO2. On the following day, test compounds were diluted with assay media and added to the appropriate wells (final DMSO concentration in the cell culture medium was 0.5%). Assay reference positive control was included in each run to ensure assay performance. Cells were incubated at 37° C., 5% CO2 for 72 hours, at which time the cells were still sub-confluent. The antiviral activity was determined by measuring replicon reporter firefly luciferase activity using Bright Glo kit in accordance with the protocol provided by the supplier (Promega). The toxicity of the test compounds was assessed by CytoTox-1 cell proliferation assay (Promega). The half maximal effective concentration (EC50) and the half maximal toxic concentration (TC50) values were calculated using the GraphPad Prism software.
# Huh-7 cells = test: Toxicity by CytoTox-1 cell proliferation assay (TC50) and selectivity index; type: cell-based; conditions: TC50 by CytoTox-1 cell proliferation assay over replicon EC50, Huh-7 cells
# Method: as §2
# [1] = tested on: GT1a S282T NS5B mutant replicon; test: HCV NS5B mutant replicon assay, GT1a S282T; type: cell-based; conditions: Hepatitis C virus, Huh-7, 72 h, read-out: GT1a S282T EC50
# Method: as §1
# (§3) The HCV replicon mutants were generated by site-directed mutagenesis (SDM). The SDM was performed by PCR and the PCR fragments were inserted into the backbone replicon construct. The inserted PCR fragments and the mutants were confirmed by sequencing.
# as §2
# [2] = tested on: GT1a L159F NS5B mutant replicon; test: HCV NS5B mutant replicon assay, GT1a L159F; type: cell-based; conditions: Hepatitis C virus, Huh-7, 72 h, read-out: GT1a L159F EC50
# Method: as §1, §3, §2
# [3] = Nucleoside phosphoester stability in simulated gastric fluid; type: in vitro ADME; conditions: simulated gastric fluid pH 1.2, 2 μM, 37° C.
# Method: Test compounds at 2 μM were incubated at 37° C. with simulated gastric fluid (SGF, 0.2% (w/v) sodium chloride in 0.7% (v/v) hydrochloric acid, deionized water, 0.3% pepsin (w/v), pH 1.2). Duplicate samples were used. Samples were removed at 0, 15, 30, 60, 120, 360 and 1440 min, immediately mixed with cold acetonitrile containing internal standard (IS), and stored at −80° C. before analysis. Omeprazole was used as a positive control. Samples were analyzed by LC/MS/MS method, and disappearance of test compound was assessed by comparison of peak area ratios of analyte/IS and reported as % test compound remaining at each time point.
Compound,EC50 (GT1a (H77) HCV replicon) [nM],Selectivity Index (TC50/EC50) (Huh-7 cells),EC50 [1] [nM],EC50 [2] [nM],% Remaining ([3]; 0 min) [%],% Remaining ([3]; 15 min) [%],% Remaining ([3]; 30 min) [%],% Remaining ([3]; 60 min) [%],% Remaining ([3]; 120 min) [%],% Remaining ([3]; 360 min) [%],% Remaining ([3]; 1440 min) [%]
"CC(C)(C)SSc1ccccc1CCOP1(=O)OC[C@H]2O[C@@H](n3ccc(=O)[nH]c3=O)[C@](C)(F)[C@@H]2O1 (single isomer, unassigned) [Compound 7A]",5 to 8,>500,60,11,100.00,95.13,99.01,92.49,91.52,91.60,70.36
"CC(C)OC(=O)[C@H](C)N[P@](=O)(OC[C@H]1O[C@@H](n2ccc(=O)[nH]c2=O)[C@](C)(F)[C@@H]1O)Oc1ccccc1 [sofosbuvir, reference compound]",40 to 61,>100,194 to 694,80,100.00,93.47,99.50,99.63,95.33,87.35,61.36
